Measured values taken from publication PMC3817140, “The Role of the Methyltransferase Domain of Bifunctional Restriction Enzyme RM.BpuSI in Cleavage Activity” (PLoS ONE, 2013).

Biological target: T1, RM.BpuSI (Bacillus pumilus, UniProt G1K3S1)
T1 construct: full-length (REase, helical connector, MTase domain, TRD); recombinant in E. coli ER3081, no tag told; treated with substrate DNA to remove SAM
T1 sequence (G1K3S1 1-878): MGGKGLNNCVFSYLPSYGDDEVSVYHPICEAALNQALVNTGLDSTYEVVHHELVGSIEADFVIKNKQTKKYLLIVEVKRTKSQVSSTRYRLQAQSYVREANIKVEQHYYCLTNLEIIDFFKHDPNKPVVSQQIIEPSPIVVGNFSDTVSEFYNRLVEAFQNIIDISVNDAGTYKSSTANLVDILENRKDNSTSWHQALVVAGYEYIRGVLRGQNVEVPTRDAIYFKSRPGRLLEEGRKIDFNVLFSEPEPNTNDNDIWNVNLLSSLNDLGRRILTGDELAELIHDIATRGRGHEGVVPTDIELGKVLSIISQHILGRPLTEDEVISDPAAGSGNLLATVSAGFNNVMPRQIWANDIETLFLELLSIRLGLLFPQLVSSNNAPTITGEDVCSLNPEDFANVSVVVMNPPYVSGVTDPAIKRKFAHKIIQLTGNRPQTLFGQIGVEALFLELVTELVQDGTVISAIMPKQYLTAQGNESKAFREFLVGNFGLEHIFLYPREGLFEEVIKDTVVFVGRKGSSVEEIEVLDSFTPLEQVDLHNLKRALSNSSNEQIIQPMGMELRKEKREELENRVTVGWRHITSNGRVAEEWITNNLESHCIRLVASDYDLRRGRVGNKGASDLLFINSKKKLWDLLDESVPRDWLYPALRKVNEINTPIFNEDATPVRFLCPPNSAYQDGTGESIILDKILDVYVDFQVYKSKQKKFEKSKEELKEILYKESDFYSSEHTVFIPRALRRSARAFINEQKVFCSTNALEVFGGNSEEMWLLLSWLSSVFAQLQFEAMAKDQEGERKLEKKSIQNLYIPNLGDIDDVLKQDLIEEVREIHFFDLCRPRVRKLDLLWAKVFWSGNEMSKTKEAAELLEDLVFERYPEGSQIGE
Experiment: ANS fluorescence titration
Type: binding

Structure (SMILES) | Kd
C[S+](CC[C@H](N)C(=O)O)C[C@H]1O[C@@H](n2cnc3c(N)ncnc32)[C@H](O)[C@@H]1O (some centres unmarked) [SAM] | 76.4 ± 18.2 µM
Nc1ncnc2c1ncn2[C@@H]1O[C@H](C[C@@H](N)CC[C@H](N)C(=O)O)[C@@H](O)[C@H]1O [sinefungin] | 71.1 ± 14.2 µM
